{"source": "patent US20230131025A1", "about": "“QUINOLYL PHOSPHINE OXIDE COMPOUND, AND COMPOSITION AND APPLICATION THEREOF” (Betta Pharmaceuticals Co., Ltd., priority 2020, published 2023)", "key": {"Ba/F3 EGFR WT": {"molecular_target": "Ba/F3 EGFR WT (Homo sapiens, UniProt P00533)", "sequence (P00533 whole entry, stated change not applied)": "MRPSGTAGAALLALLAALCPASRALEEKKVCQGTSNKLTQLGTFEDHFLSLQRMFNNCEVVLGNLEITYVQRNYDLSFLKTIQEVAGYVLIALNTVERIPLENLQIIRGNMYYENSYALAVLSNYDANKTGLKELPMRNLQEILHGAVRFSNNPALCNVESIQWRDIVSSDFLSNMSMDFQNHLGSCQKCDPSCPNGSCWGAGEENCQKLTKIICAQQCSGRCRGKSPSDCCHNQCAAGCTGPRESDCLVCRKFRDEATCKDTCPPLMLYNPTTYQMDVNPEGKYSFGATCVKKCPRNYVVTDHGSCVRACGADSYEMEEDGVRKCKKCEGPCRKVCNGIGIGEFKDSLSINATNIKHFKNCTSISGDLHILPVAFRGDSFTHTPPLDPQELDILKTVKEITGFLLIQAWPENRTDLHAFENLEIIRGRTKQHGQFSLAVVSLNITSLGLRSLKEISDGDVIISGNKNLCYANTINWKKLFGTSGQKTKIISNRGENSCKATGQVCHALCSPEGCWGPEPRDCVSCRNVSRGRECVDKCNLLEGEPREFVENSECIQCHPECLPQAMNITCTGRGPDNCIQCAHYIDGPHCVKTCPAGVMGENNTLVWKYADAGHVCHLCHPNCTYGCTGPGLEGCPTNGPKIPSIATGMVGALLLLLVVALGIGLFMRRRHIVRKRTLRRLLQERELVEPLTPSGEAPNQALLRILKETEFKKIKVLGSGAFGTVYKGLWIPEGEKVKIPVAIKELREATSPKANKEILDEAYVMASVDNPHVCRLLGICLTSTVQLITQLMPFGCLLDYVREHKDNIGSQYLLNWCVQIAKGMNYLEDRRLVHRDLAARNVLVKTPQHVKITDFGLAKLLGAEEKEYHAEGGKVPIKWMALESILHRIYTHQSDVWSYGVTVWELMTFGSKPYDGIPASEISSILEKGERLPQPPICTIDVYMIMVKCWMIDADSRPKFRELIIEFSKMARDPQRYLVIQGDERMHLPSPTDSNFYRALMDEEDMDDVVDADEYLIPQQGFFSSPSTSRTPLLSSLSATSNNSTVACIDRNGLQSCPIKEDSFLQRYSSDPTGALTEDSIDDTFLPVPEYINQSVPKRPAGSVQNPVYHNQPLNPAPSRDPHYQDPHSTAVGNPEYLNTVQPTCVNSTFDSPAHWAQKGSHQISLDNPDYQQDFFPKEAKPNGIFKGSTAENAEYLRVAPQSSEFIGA", "test": "Cell proliferation experiment (CellTiter Glo, 72 hours)", "type": "cell-based", "details": "read-out: BaF3 EGFR WT IC50", "in_short": "(§1)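 Ba/F3 cells overexpressing EGFR Δ19del/T790M/C797S or EGFR WT were seeded at 2000 or 3000 cells/well and exposed 72 h to 9 compound concentrations (3-fold, top 10000 or 1111 nM final, 0.1% DMSO). CellTiter-Glo luminescence gave survival inhibition versus controls; IC50 from nonlinear fit.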"}, "Ba/F3-Δ19del/T790M/C797S": {"molecular_target": "Ba/F3-Δ19del/T790M/C797S (Homo sapiens, UniProt P00533, T790M/C797S, cells depend on it, form not given)", "sequence (P00533 with tags, fused parts or gaps DEL746-750/T790M/C797S, form open)": "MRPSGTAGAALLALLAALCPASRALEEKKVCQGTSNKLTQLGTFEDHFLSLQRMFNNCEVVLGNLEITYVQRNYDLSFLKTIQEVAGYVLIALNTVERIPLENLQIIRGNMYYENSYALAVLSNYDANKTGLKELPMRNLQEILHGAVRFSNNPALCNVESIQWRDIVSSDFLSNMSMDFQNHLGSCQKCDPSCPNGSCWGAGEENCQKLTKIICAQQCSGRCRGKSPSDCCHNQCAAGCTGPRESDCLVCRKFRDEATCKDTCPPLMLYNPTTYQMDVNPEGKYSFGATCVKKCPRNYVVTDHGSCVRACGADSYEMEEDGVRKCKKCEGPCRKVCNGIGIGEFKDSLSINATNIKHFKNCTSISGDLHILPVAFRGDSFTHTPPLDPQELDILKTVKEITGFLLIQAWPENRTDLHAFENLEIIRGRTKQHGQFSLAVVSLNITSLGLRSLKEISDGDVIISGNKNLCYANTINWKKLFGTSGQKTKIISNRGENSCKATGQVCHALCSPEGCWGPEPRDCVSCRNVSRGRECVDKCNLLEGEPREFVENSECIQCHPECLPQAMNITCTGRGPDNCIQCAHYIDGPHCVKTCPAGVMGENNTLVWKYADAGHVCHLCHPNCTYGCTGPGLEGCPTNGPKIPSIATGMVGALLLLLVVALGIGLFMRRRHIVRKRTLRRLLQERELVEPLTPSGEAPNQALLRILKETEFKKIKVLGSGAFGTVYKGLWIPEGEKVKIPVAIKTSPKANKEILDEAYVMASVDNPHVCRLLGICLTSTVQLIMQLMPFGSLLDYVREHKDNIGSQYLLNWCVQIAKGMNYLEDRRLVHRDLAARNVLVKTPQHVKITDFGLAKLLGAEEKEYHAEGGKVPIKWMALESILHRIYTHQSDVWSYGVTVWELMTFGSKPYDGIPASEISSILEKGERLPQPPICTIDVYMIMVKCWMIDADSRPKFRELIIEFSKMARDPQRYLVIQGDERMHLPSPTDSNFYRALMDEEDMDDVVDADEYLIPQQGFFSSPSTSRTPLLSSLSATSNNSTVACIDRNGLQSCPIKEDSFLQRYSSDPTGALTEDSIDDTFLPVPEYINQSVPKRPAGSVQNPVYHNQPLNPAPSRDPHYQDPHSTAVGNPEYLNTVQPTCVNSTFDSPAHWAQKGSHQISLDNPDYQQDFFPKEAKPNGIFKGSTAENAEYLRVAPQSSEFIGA", "test": "Cell proliferation experiment (CellTiter Glo, 72 hours)", "type": "cell-based", "details": "read-out: Ba/F3/EGFR Δ19del/T790M/C797S IC50", "in_short": "as §1"}, "[1]": {"test": "In vivo safety experiment (body weight, tolerance)", "method": "The safety evaluation of the drug was carried out in BALB/c nude mice. […] They were fed in an SPF environment, and each cage was individually ventilated (5 mice per cage). All cages, bedding and water were disinfected prior to use. Mice were purchased from Viton Lever and were allowed to acclimate in the laboratory. Mice were administered orally QD."}, "[2]": {"system": "human epidermal cancer cells A431 carrying EGFR WT", "test": "Cell proliferation experiment (CellTiter Glo, 72 hours)", "type": "cell-based", "details": "Homo sapiens, A-431", "in_short": "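Cells seeded at 2000 or 3000/well and exposed 72 h to 9-point 3-fold dilutions, top final 10000 nM or 1111 nM, 0.1% DMSO. Viability by CellTiter-Glo luminescence. Inhibition relative to cell and medium controls; IC50 by four-parameter nonlinear regression.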"}}}
{"smiles": "COc1cc(N2CCC(N3CCN(C)CC3)CC2)c(C)cc1Nc1ncc(Br)c(Nc2ccc3nc(C4CC4)ccc3c2P(C)(C)=O)n1", "note": "[Compound J-022, (6-((5-Bromo-2-((2-methoxy-5-methyl-4-(4-(4-methylpiperazin-1-yl)piperidin-1-yl)phenyl)amino)pyrimidin-4-yl)amino)-2-cyclopropylquinolin-5-yl)dimethylphosphine oxide]", "values": [{"measurement": "GI50", "setting": "Ba/F3 EGFR WT", "result": 151, "unit": "nM"}, {"measurement": "GI50", "setting": "Ba/F3-Δ19del/T790M/C797S", "result": 6.8, "unit": "nM"}, {"measurement": "Body weight of mouse", "setting": "[1]; 75 mg/kg/day oral QD, 0 days", "result": 18.7, "unit": "g"}, {"measurement": "Body weight of mouse", "setting": "[1]; 75 mg/kg/day oral QD, 2 days", "result": 18.9, "unit": "g"}, {"measurement": "Body weight of mouse", "setting": "[1]; 75 mg/kg/day oral QD, 4 days", "result": 19.2, "unit": "g"}, {"measurement": "Body weight of mouse", "setting": "[1]; 75 mg/kg/day oral QD, 6 days", "result": 19.4, "unit": "g"}, {"measurement": "Body weight of mouse", "setting": "[1]; 100 mg/kg/day oral QD, 0 days", "result": 18.7, "unit": "g"}, {"measurement": "Body weight of mouse", "setting": "[1]; 100 mg/kg/day oral QD, 2 days", "result": 18.6, "unit": "g"}, {"measurement": "Body weight of mouse", "setting": "[1]; 100 mg/kg/day oral QD, 4 days", "result": 19.0, "unit": "g"}, {"measurement": "Body weight of mouse", "setting": "[1]; 100 mg/kg/day oral QD, 6 days", "result": 19.2, "unit": "g"}, {"measurement": "Body weight of mouse", "setting": "[1]; 150 mg/kg/day oral QD, 0 days", "result": 18.7, "unit": "g"}, {"measurement": "Body weight of mouse", "setting": "[1]; 150 mg/kg/day oral QD, 2 days", "result": 18.3, "unit": "g"}, {"measurement": "Body weight of mouse", "setting": "[1]; 150 mg/kg/day oral QD, 4 days", "result": 18.5, "unit": "g"}, {"measurement": "Body weight of mouse", "setting": "[1]; 150 mg/kg/day oral QD, 6 days", "result": 18.4, "unit": "g"}, {"measurement": "Change in the body weight of mice", "setting": "[1]; 150 mg/kg/day oral, 7 days", "result": "no significant change"}, {"measurement": "Tolerability", "setting": "[1]; 150 mg/kg/day, 7 days", "result": "tolerable"}, {"measurement": "window from the effective dose to the intolerance dose", "setting": "[1]; effective dose = dose corresponding to 50% TGI", "result": "greater than 15 times"}, {"measurement": "IC50", "setting": "[2]", "result": 1130, "unit": "nM"}]}
